Reference: US4909257A, “Method for attaining in vivo tissue-specific contrast by nuclear magnetic resonance imaging” (priority 1989, dated 1990)

Tests used:
normal BALB/C mice = assay: Toxicity (acute lethality) after i.v. tail vein injection in mice; type: in vivo; conditions: 0.2 mL, five BALB/C mice per dose group, 7 days
Description: Solutions were prepared to evaluate the toxicity of the chelators and ferric complexes of the chelators.
A 1.2 M stock ferric solution was prepared by dissolving 32 g of FeCl3 * 6 H2 O in 100 mL of 0.1 N HCl. It was standardized by EDTA titration using Variamine Blue B indicator.
A solution or suspension of 10 mmoles of each ligand in 20 mL of water was 70-80% neutralized by reaction with NaOH. The resulting solution (pH~9) was added dropwise to a solution of 10.1 mmoles of FeCl3 in 10 mL of water. The reaction mixture was adjusted to pH 7.0 with solid NaHCO3 and stirred at 60°-80° C. for two hours. It then was ccentrifuged, and the supernatant was filtered through a 0.22 micron filter. […] Th filtrate was concentrated on a rotary evaporator, the pH adjusted to 7.0, and the volume adjusted to 20 mL.
Tiron was obtained as the sodium salt. An aqueous 0.5 M solution was treated with a 2% excess of FeCl3, and the reaction mixture was worked up as above.
A suspension of 3.6 g (10 mmoles) of EHPG in 15 mL of water was reacted with 17 mL of 2 N NaOH. The resulting dark yellow-orange solution was added dropwise to a solution of 2.7 g […] of FeCl3 * 6 H2 O in 10 mL of water. The reaction mixture was warmed to 60°-80° C. and held at that temperature for 2 hours. The thick orange-red suspension was diluted to 120 mL and heated to 90°-100° C. The hot suspension was filtered through filter aid, and the filtrate was allowed to cool to room temperature.
Rather than crystallizing the product, the pH of the reaction mixture was adjusted to 7.0 with NaHCO3 and filtered. The filtrate was used for subsequent experiments after appropriate volume adjustments and Fe determination.
For each compound at each dose, five normal BALB/C mice weighing 19-22 g were treated with test solution by injection into the tail vein. The injection volumes were approximately 0.2 mL. The behavior and condition of the mice were monitored for 1 week.

[1] = Magnetic resonance imaging contrast enhancement (2 Tesla, coronal spin echo); type: in vivo, BALB/C mice; conditions: for MRI: increase in signal intensity in the gall bladder: in contrast to Fe-EHPG and Fe-HBED; for MRI: urinary bladder concentration: mouse, in vivo
[2] = Organ distribution and clearance of 59Fe-labeled complexes; type: in vivo, BALB/C mice
Description: ^59 Fe was obtained as 0.06 M FeCl3 in 0.5 N HCl; the specific activity was approximately 20 mCi/mmole (1.2 mCi/mL). Labeled commplexes were preared by treating in a Teflon vial 10 uL of ^59 FeCl3 with 25 uL of 2.0×10^-2 M solution of ligand, followed by 0.25 mL of 0.36 M, pH 7.3 Na HEPES buffer and 0.74 mL of water. The reaction mixture was held at 80° C. for 2 hours and then treated with 0.2 mL of 0.12 M solution of Fe-ligand complex. The resulting solution was filtered through a 0.22 u filter. A 0.2 mL dose contained 0.004 mmole of Fe-chelate with 2 uCi of ^59 Fe. ^59 Fe acetate was prepared as above, but without addition of unlabeled carrier Fe acetate.
For each complex shown in FIG. 1, a group of five BALB/C mice were treated as above with 0.2 mmole/Kg of labeled Fe-complex containing approximately 2 uCi of ^59 Fe. The animals were counted immediately after injection and at 2 hours, 1, 2, 4, and 7 days. Whole body counts were obtained using a Nuclear Chicago Tobor chamber gamma counter. Raw counts were background-subtracted and back-decayed to t0, the time of injection. An ^59 Fe standard and background were counted at each time point.
After the appropriate time period, the animals were sacrificed and dissected. Organ weights were measured, and the organs were counted in a gamma counter. Due to its small size, the gall bladder was combined with the small intestine for weighing and counting. An ^59 Fe standard was also counted at each time point. Raw counts were background-subtracted and back-decayed to t0, the time of injection. Activity was computed as a fraction of injected dose per gram of tissue.

[3] = Dose needed for NMR contrast enhancement; type: in vivo; conditions: doses as low as

Row | Compound | LD-0 (maximum dose at which no mortality was observed for seven days post injection) (normal BALB/C mice) | LD-100 (minimum dose for which 100% mortality was observed for seven days post injection) (normal BALB/C mice) | MRI: increase in signal intensity in the gall bladder [1] | MRI: urinary bladder concentration [1] | also measured
1 | O=C(O)CN(CC(=O)O)[C@@H]1CCCC[C@H]1N(CC(=O)O)CC(=O)O (relative stereo) [CDTA, trans-1,2-cyclohexanediaminotetraacetic acid] | 0.05 mmol/kg | 0.5 mmol/kg |  |  | 
2 | CC(=O)N(O)CCCCCNC(=O)CCC(=O)N(O)CCCCCNC(=O)CCC(=O)N(O)CCCCCN [DF, Desferrioxamine B] | 0.5 mmol/kg | 1 mmol/kg |  |  | 
3 | CC(=O)N([O-])CCCCCNC(=O)CCC(=O)N([O-])CCCCCNC(=O)CCC(=O)N([O-])CCCCCN.[Fe+3] [Fe--DF] | 0.5 mmol/kg | 2 mmol/kg | essentially none in the gall bladder | concentrated in the urinary bladder | 
4 | O=C([O-])C(NCCNC(C(=O)[O-])c1ccccc1[O-])c1ccccc1[O-].[Fe+3] (stereo not drawn) [Fe--EHPG] | 0.9 mmol/kg |  |  | concentrated in the urinary bladder | liver level of 59Fe over time ([2]; 0.2 mmole/Kg labeled Fe-complex, fraction of injected dose per gram of tissue, FIGS. 2 and 3): initially high and then decreased; large intestine levels at 6 hours ([2]; gut tissue and contents, final time of 6 hours): exceeded all of the other values; large intestine levels, up to the 2 hour time point ([2]; gut tissue and contents, up to 2 hours): started and remained lower than the liver or small intestine values; small intestine values over time ([2]; small intestine combined with gall bladder, out to 6 hours): initially low, rose to a maximum at about 1-2 hours, and then decreased out to 6 hours; time of maximum small intestine value ([2]; small intestine combined with gall bladder, printed as about): 1 to 2 h; MRI: gall bladder contrast at 50 minutes ([1]; 50 minutes post-contrast): gall bladder contrast remains markedly high; MRI: liver intensity at 50 minutes ([1]; 50 minutes post-contrast): liver intensity has decreased; MRI: gall bladder enhancement, later ([1]; gradual, post-contrast): gradually becomes brighter than the surrounding liver; MRI: liver enhancement ([1]; post-contrast, initial): first concentrate in the liver; MRI: gall bladder enhancement, initial ([1]; while agent first concentrates in the liver): gall bladder remains unenhanced; lowest dose achieving NMR contrast enhancement [3]: 1 mg contrast agent per kilogram weight of the animal
5 | O=C([O-])CN(CCO)CCN(CC(=O)[O-])CC(=O)[O-].[Fe+3] [Fe--HEDTA] |  | 0.5 mmol/kg |  |  | 
6 | GD-DTPA [reference compound] |  |  | essentially none in the gall bladder | concentrated in the urinary bladder | 
